Results on seven compounds are retold here after patent publication US5441974A, “Phenyl amidines lactones useful as platelet aggregation inhibitors” (G. D. Searle & Co., priority 1994, dated 1995).

For this assay, the system named is platelet aggregation. Nature of the assay: In-Vitro Platelet Aggregation in PRP (ADP-induced). It counts as cell-based. Conditions: dog platelet-rich plasma, ADP 50 μm final; for IC50: 1 min preincubation at 37° C.; for % Inhibition: Test Concentration 1 × 10^-5. The protocol: Compounds of the invention were evaluated by an in vivo assay to determine compound activity as an inhibitors of platelet aggregation.
Healthy male or female dogs were fasted for 8 hours prior to drawing blood; then 30 mL whole blood was collected using a butterfly needle and 30 cc plastic syringe with 3 ml of 0.129M buffered sodium citrate (3.8%). The syringe was rotated carefully as blood was drawn to mix the citrate. Platelet-rich plasma (PRP) was prepared by centrifugation at 975×g for 3.17 minutes at room temperature, allowing the centrifuge to coast to a stop without braking. The PRP was removed from the blood with a plastic pipette and placed in a plastic capped, 50 ml Corning conical sterile centrifuge tube which was held at room temperature. Platelet poor plasma (PPP) was prepared by centrifuging the remaining blood at 2000×g for 15 minutes at room temperature allowing the centrifuge to coast to a stop without braking. The PRP was adjusted with PPP to a count of 2-3×10^8 platelets per ml. 400 μL of the PRP preparation and 50 μL of the compound to be tested or saline were preincubated for 1 minute at 37° C. in a BioData aggregometer (BioData, Horsham, Pa.). 50 μL of adenosine 5'diphosphate (ADP) (50 μm final concentration) was added to the cuvettes and the aggregation was monitored for 1 minute. All compounds are tested in duplicate. Results are calculated as follows:
Percent of control=[(maximal OD minus initial OD of compound) divided by (maximal OD minus initial OD of control saline)]×100. The % inhibition=100 - (percent of control).

[1] abbreviates: Canis lupus familiaris, Platelet.

The structures appear in SMILES notation. Where a name gives a salt, the structure may show the parent alone.

For orientation: IC50 means the midpoint of a concentration-inhibition curve. In turn, `N=C(N)c1ccc(CCCCC(=O)NC2CC(=O)OC2c2nccs2)cc1` (single isomer, unassigned; diastereoisomer b) [Example 8, 4-(aminoiminomethyl)-N-[tetrahydro-5-oxo-2-(2-thiazolyl)-3S-furanyl]benzene pentanamide, trifluoroacetate. (diastereoisomer B)] returned an IC50 greater than 10000 nM.
In turn, `N=C(N)c1ccc(CCCCC(=O)NC2CC(=O)Oc3ccccc32)cc1` (racemic) [Example 2, (±)-4-(Aminoiminomethyl)-N-(3,4-dihydro-2-oxo-2H-1-benzopyran-4-yl) benzenepentanamide] returned an IC50 under setting [1] of 2000 nM.
On to `N=C(N)c1ccc(CCCCC(=O)N[C@H]2CC(=O)OC2c2nccs2)cc1` (single isomer, unassigned; diastereoisomer a) [Example 7, 4-(aminoiminomethyl)-N-[tetrahydro-5-oxo-2-(2-thiazolyl)-3S-furanyl]benzene pentanamide, bis(trifluoroacetate) (diastereoisomer A)], for which the IC50 was greater than 10000 nM.
As a reminder, the % Inhibition is the share of the control response that was lost under treatment. High values mean a response far below the control, low ones a response near the control. Take `N=C(N)c1ccc(CCCCC(=O)N[C@H]2CC(=O)OC2c2ccccc2)cc1` (single isomer, unassigned; diastereomer a) [Example 4]: the concentration for half-maximal inhibition (IC50) was determined as 680 nM and the “% Inhibition” value was found to be 100%.
With `COc1ccc2c(c1)OC(=O)CC2NC(=O)CCCCc1ccc(C(=N)N)cc1` (racemic) [Example 3, (±)-4-(Aminoiminomethyl)-N-(3,4-dihydro-7-methoxy-2-oxo-2H-1-benzopyran-4-yl)benzenepentanamide], the “% Inhibition” value stood at 96%. For the same compound, 1100 nM corresponded to half-maximal inhibition under setting [1] (IC50).
Regarding `N=C(N)c1ccc(CCCCC(=O)N[C@@H]2COC(=O)C2)cc1` [Example 1, 4-(Aminoiminomethyl)-N-(5-oxo-3S-furanyl)benzenepentanamide], the “% Inhibition” value worked out at 44%.
Regarding `N=C(N)c1ccc(CCCCC(=O)N[C@H]2CC(=O)OC2c2ccccc2)cc1` (single isomer, unassigned; diastereoisomer b) [Example 5, 4-(aminoiminomethyl)-N-(tetrahydro-5-oxo-2-phenyl-3S-furanyl)benzenepentanamide, trifluoroacetate (diastereoisomer B)], it took 5100 nM to reach half-maximal inhibition (IC50).
